Results on 3 compounds are retold here after patent publication US8329689B2 (priority 2006, dated 2012).

Structures are written as SMILES. pIC50: −log10 of the molar value. Structures can show the parent of a compound that is named as a salt. Where two headings read alike, the source gives them in different places.

One data set is described as follows: in vitro. To be noted: human.
Data set [1] concerns virus of hepatitis C strain JFH-1 (genotype 2a). As to the kind of experiment: microbe, parasite or virus in culture. The following applies: for pIC50: Hepatitis C virus, Huh-7.5.1, Huh7.5.1 cells, HCV JFH-1, 72 hours incubation, read-out: IC50 (IC50^HCV, antiviral activity). In kind it is cell-based.
Another data set relates to influenza virus. The following applies: cited from earlier work.
In data set [2] the test system is some other cellular lines. The following applies: cited from earlier work.

`CCOC(=O)c1c(CN(C)C)n(C)c2cc(C#N)c3c(c12)CN(C)CO3` [1.2(29)]: in “in vitro”, the CC50 is over 100 µM. Moreover, in data set [1], the negative logarithm of the IC50 (pIC50) was under 4.00.

On to `CCOC(=O)c1c(CN(C)C)n(C)c2cc(-c3cccnc3)c3c(c12)CN(C)CO3` [1.2.5(1c), hydrochloride], for which the CC50 in the data set “in vitro” is 78 µM. The “Therapeutic index SI50 = TC50/IC50” value in data set [1] (HCV) came to 13. Also, in data set [1] (GETYPE2A), the pIC50 is 5.22.

On to `CCOC(=O)c1c(CSc2ccccc2)n(C)c2cc(Br)c(O)c(CN(C)C)c12.Cl` [Arbidol, ethyl 6-bromo-4-[(dimethylamino)methyl]-5-hydroxy-1-methyl-2-(phenylthiomethyl)-1H-indole-3-carboxylate hydrochloride], for which, in the data set on influenza virus, the IC50 is 23.2 MκΓ/ml. For the same compound, in data set [2], the TC50 was 15 to 25 µg/mL.
